Laboratory results reported in US11759444B2, “Methods for cancer and immunotherapy using prodrugs of glutamine analogs” (The Johns Hopkins University, priority 2015, dated 2023).
Entries after “also recorded” stand apart in the source; their conditions may differ. Read-outs that look alike come from different tables or passages of the source.

Columns and labels:
[1] = In vitro plasma stability, pig plasma; assay type: in vitro ADME
[2] = In vitro plasma stability, dog plasma; assay type: in vitro ADME
[3] = Plasma and CSF pharmacokinetics in monkeys, i.v.; assay type: in vivo, pigtail macaques; conditions: monkey
Protocol: All monkey studies were conducted according to protocol (#PR15M298) approved by the Animal Care and Use Committee at Johns Hopkins University. Two female pigtail monkeys (approximately 3.5 kg, non-drug naive) were adjacently housed in stainless steel cages on a social interaction rack (contains 4 cages, each 32.5″ wide×28″ deep×32″ high) maintaining temperature of 64-84° F., humidity of 30-70% with alternating 14-10 hour light/dark cycle as per the USDA Animal Welfare Act (9 CFR, Parts 1, 2, and 3). Food was provided daily in amounts appropriate for the size and age of the animals and RO purified water provided ad libitum through an in-cage lixit valve. Food enrichment was provided Monday through Friday. […]
We have previously published a highly sensitive method for analysis of DON in biological matrices (Alt, et al., 2015). […] The mean predicted […] for back calculated concentrations of the standards and QC's for all analytes were within the range of 85 to 115%, except for the lowest concentration which was within the range of 80 to 120% with an overall accuracy and precision of 6.7% and 6.6% respectively.
Mean concentration-time data was used for pharmacokinetic analysis. […] Area under the curve (AUC) was calculated by log-linear trapezoidal rule to the end of sample collection (AUClast). […]

[4] = Plasma and CSF pharmacokinetics in swine, i.v. infusion; assay type: in vivo, Göttingen×Yucutan miniature swine; conditions: 60 min post-administration
[5] = In vitro plasma stability, mouse plasma
[6] = In vitro plasma stability, human plasma
[7] = In vitro plasma stability, monkey plasma
[8] = tested on: EL4 lymphoma; test: EL4 mouse lymphoma model; assay type: in vivo; conditions: monotherapy
[9] = tested on: B16 melanoma; test: B16 melanoma mouse model; assay type: in vivo; conditions: monotherapy
[10] = tested on: CT26 cells; test: CT26 colon cancer tumor model; assay type: in vivo, BALB/c mice; conditions: for CT26 anti-tumor response in combination with anti-PD1: combination with anti-PD-1
Protocol: (§1) Tumor growth and survival experiments: Tumor injections were administered in the right flank. For the MC38 and MC38OVA models, C57BL/6 WT mice were injected with 5×10^5 MC38 or MC38OVA cells (s.c.) cultured in DMEM-based media. For the CT26 model, BALB/c mice were injected with 5×10^5 CT26 cells (s.c.) cultured in RPMI-based media. Compound 25 was dissolved in 2.5% ethanol in PBS (v/v) which was administered for all vehicle-treated control experiments. For MC38 and MC38OVA experiments, mice were treated with Compound 25 or vehicle by daily gavage with 1 mg/kg/day in 100 uL for days 10-14 and with 0.3 mg/kg/day for day 15-24. For CT26 experiments, mice were treated with compound 25 or vehicle by daily gavage with 1 mg/kg/day in 100 uL for days 7-11 and with 0.3 mg/kg/day for day 12-21.

[11] = tested on: MC38 cells; test: MC38 colon cancer tumor model; assay type: in vivo, C57BL/6 mice; conditions: for MC38 tumor response, monotherapy (words): 1 mg/kg followed by 0.3 mg/kg, 14 days, wild type mice; for rejection of tumor re-challenge by mice cured with monotherapy: MC38 rechallenge on opposite flank; for MC38 response in combination with anti-PD1: combination with anti-PD-1
Protocol: as §1

[12] = tested on: EO771 cells; test: EO771 breast cancer model; assay type: in vivo, C57BL/6 mice
Protocol: Mouse: C57BL/6 (both male and female mice, 6-8 weeks of age) were purchased from Jackson Laboratories. The studies were conducted under a protocol approved by the Johns Hopkins Animal Care and Use Committee.
Cell Line: EO771 breast cancer cell lines were purchased from CH3 BioSystems.
Treatment with immunotherapy alone or combined immunotherapy with compound 25: On days 9, 12, and 15, mice were injected with or without 100 μg anti-PD1 alone or 100 μg anti-PD1 in combination with 100 μg anti-CTLA4, followed by treatment with or without compound 25. Each individual mouse tumor growth and survival curves were recorded.

[13] = tested on: 3LL cells; test: 3LL tumor model; assay type: in vivo, C57BL/6J mice
Text: 5×10^6 3 LL cells were implanted subcutaneously into the right flank in C57BL/6J male mice.

[14] = tested on: B16-OVA melanoma cells; test: B16-OVA melanoma model with adoptive cellular therapy; assay type: in vivo, C57BL/6 mice; conditions: 1 mg/kg/day days 7-9 before transfer on day 10
Protocol: Adoptive Cellular Therapy: OVA-expressing B16 melanoma model, C57BL/6 WT mice received a s.c. injection of 2×10^5 B16-OVA melanoma cells cultured under OVA selection media containing 400 μg/ml G418 (Life technologies). Mice were treated with compound 25 or vehicle by daily gavage with 1 mg/kg/day in 100 uL for days 7-9 post tumor inoculation. Ten days after tumor injection, mice received an adoptive transfer of 1.5×10^6 activated OT1 cells, which had been stimulated in vitro with […] peptide for 48 h, expanded in IL-2 (1 ng/mL) for 24 h and isolated with Ficol gradient centrifugation. Mice were randomized based on tumor size before transfer of activated OT1 cells for adoptive transfer experiments. Tumor burden was assessed every 2-4 days by measuring length and width of tumor. Tumor volume was calculated using the formula V=(L×W×W)/2, where V is tumor volume, W is tumor width, and L is tumor length. Mice were sacrificed when tumor reached 2 cm in any dimension, became ulcerate or necrotic, or caused functional deficits.

[15] = microsomes
[16] = microsomes; remark: listed apart in the source
[17] = tested on: MC38 cells; test: MC38 colon cancer tumor model; assay type: in vivo, C57BL/6 mice; conditions: growth rate recovered after several days
[18] = tested on: 4T1 tumor cells; test: 4T1 breast cancer model; conditions: for 4T1 tumor growth and survival, monotherapy (words): 1 mg/kg daily
[19] = Table 2, prodrug 10 μM, 60 min incubation at 37° C., values read as % prodrug remaining
[20] = 1 mg/kg daily day 7 to 16, tumors evaluated day 21

Compound: CC(C)OC(=O)[C@H](CCC(=O)C=[N+]=[N-])NC(=O)O[C@H](C)OC(=O)C(C)(C)C (single isomer, unassigned) [Compound 14b]
- stability in pig plasma [1]: stable
- stability in dog plasma [2]: stable
- CSF:plasma ratio of DON [3]: enhanced CSF:plasma ratio of DON
- CSF delivery of DON [4]: substantially higher amounts of DON; also recorded: enhanced CSF delivery of DON
- CSF-to-plasma ratio of DON [4]: increased CSF-to-plasma ratios; also recorded: enhanced CSF:plasma ratio of DON
- metabolism in mouse plasma [5]: rapidly metabolized
- PLASMA STABILITY Mouse [5, 19]: 0%
- metabolism in mouse plasma ([5]; listed as 5c): completely converted to DON
- stability in human plasma [6]: stable
- PLASMA STABILITY Human [6, 19]: 91%
- stability in human plasma ([6]; listed as 5c): stable; also recorded: excellent stability
- stability in monkey plasma [7]: stable
- PLASMA STABILITY Monkey [7, 19]: 61%
- stability in monkey plasma ([7]; listed as 5c): stable; also recorded: excellent stability

Compound: CCOC(=O)[C@H](CCC(=O)C=[N+]=[N-])NC(=O)[C@@H](N)CC(C)C [Compound 25]
- lymphoma tumor growth [8]: marked decrease in tumor growth
- melanoma tumor growth [9]: marked decrease in tumor growth
- CT26 tumor model, comparison with CB-839 ([10]; 25 short daily course vs CB-839 continuous BID dosing): superior to CB-839
- CT26 anti-tumor response in combination with anti-PD1 [10]: unexpectedly enhances the response to anti-PD1
- CT26 anti-tumor response in combination with anti-PD1 ([10]; listed as compound 25): significant anti-tumor responses
- CT26 tumor response and survival, monotherapy (words) [10]: robust response and improved overall survival
- CT26 tumor response and survival, monotherapy (words) ([10]; listed as compound 25): marked decrease in tumor growth
- MC38 tumor response, monotherapy (words) [11]: complete and durable response
- MC38 tumor response, monotherapy (words) ([11]; listed as compound 25): marked decrease in tumor growth; also recorded: durable cures; also recorded: significant control of the tumor including complete regression in a proportion of the mice
- rejection of tumor re-challenge by mice cured with monotherapy [11]: immunologically reject tumors upon re-challenge
- rejection of tumor re-challenge by mice cured with monotherapy ([11]; listed as compound 25): More than three-quarters
- MC38 response in combination with anti-PD1 [11]: conditions tumors to be eliminated by anti-PD1 therapy; also recorded: rescues anti-PD1 failures
- MC38 response in combination with anti-PD1 ([11]; listed as compound 25): unexpected increase in both tumor regression and complete responses
- EO771 tumor growth and survival, single agent ([12]; agent alone): delayed tumor growth and increased survival
- EO771 tumor growth and survival, combination with anti-PD-1 ([12]; compound 25 + anti-PD-1): surprising increase in inhibition of tumor growth and survival
- 3LL tumor growth ([13]; 1 mg/kg from day 7, then 0.3 mg/kg): reduced tumor growth
- ratio of CD8 cells to MDSCs+ and TANs, blood and TIL ([13]; 3LL tumor-bearing mice): increased ratio of CD8 cells to MDSCs+ and TANs
- tumor control and survival with adoptive transfer of activated OT1 T cells [14]: unexpected improvement in tumor control and survival
- liver microsomal stability, human [15]: moderate-high stability
- liver microsomal stability, pig [16]: moderate-high stability
- MC38 tumor growth in RAG2−/− mice [17]: some initial effect on tumor growth
- 4T1 tumor growth and survival, monotherapy (words) [18]: robust response and improved overall survival
- CD11b+ cells and G-MDSCs in circulating blood ([18]; 1 mg/kg daily day 7 to 16, flow cytometry days 6, 9, 17): reduced CD11b+ cells and G-MDSCs
- TNF alpha in tumor associated macrophages [18, 20]: increased TNF alpha
- fibrocytes in tumor [18, 20]: reduced fibrocytes
- 4T1-Luc tumor luminescence, comparison with anti-PD1 ([18]; 1 mg/kg daily from day 7, IVIS imaging day 13): inhibited mammary carcinoma cell proliferation better than anti-PD1
- 4T1 tumor growth and survival, monotherapy (words) ([18]; listed as compound 25): inhibited the growth of mammary carcinoma tumor cells; also recorded: modest decrease in tumor growth
- spontaneous lung metastasis ([18]; 1 mg/kg from day 7, then 0.3 mg/kg, lungs harvested day 30): significantly reduces lung metastasis
- 4T1 breast cancer model, comparison with CB-839 ([18]; 25 daily days 7-22 (1.0 mg/kg/d) vs CB-839 BID days 1-29): superior to CB-839
- 4T1 tumor growth and survival, combination with anti-PD1 and anti-CTLA4 ([18]; compound 25 + anti-PD1 + anti-CTLA-4): substantial decrease of tumor growth and increase in survival time
